Key:
hIP = target: T1, hIP (Homo sapiens, UniProt P43119); assay: FLIPR calcium signal, HEK-293(EBNA) cells; assay type: cell-based; conditions: Table 1, second part; quantity not given, values match functional data (EC50) of first part; read-out: Other Receptors hIP
T1 construct: expressed in transfected cells; host or cells: HEK-293(EBNA) cells
Method: (§1) HEK-293(EBNA) cells, stably expressing one type or subtype of recombinant human prostaglandin receptors (prostaglandin receptors expressed: hDP/Gqs5; hEP1; hEP2/Gqs5; hEP3A/Gqi5; hEP4/Gqs5; hFP; hIP; hTP), were cultured in 100 mm culture dishes in high-glucose DMEM medium containing 10% fetal bovine serum, 2 mM 1-glutamine, 250 μg/ml geneticin (G418) and 200 μg/ml hygromycin B as selection markers, and 100 units/ml penicillin G, 100 μg/ml streptomycin and 0.25 μg/ml amphotericin B.
(§2) Cells were seeded at a density of 5×10^4 cells per well in Biocoat® Poly-D-lysine-coated black-wall, clear-bottom 96-well plates (Becton-Dickinson) and allowed to attach overnight in an incubator at 37° C. Cells were then washed two times with HBSS-HEPES buffer (Hanks Balanced Salt Solution without bicarbonate and phenol red, 20 mM HEPES, pH 7.4) using a Denley Cellwash plate washer (Labsystems). After 45 minutes of dye-loading in the dark, using the calcium-sensitive dye Fluo-4 AM at a final concentration of 2 μM, plates were washed four times with HBSS-HEPES buffer to remove excess dye leaving 100 μl in each well. Plates were re-equilibrated to 37° C. for a few minutes.
(§3) Cells were excited with an Argon laser at 488 nm, and emission was measured through a 510-570 nm bandwidth emission filter (FLIPR™, Molecular Devices, Sunnyvale, Calif.). Drug solution was added in a 50 μl volume to each well to give the desired final concentration. The peak increase in fluorescence intensity was recorded for each well. On each plate, four wells each served as negative (HBSS-HEPES buffer) and positive controls (standard agonists: BW245C (hDP); PGE2 (hEP1; hEP2/Gqs5; hEP3A/Gqi5; hEP4/Gqs5); PGF2. (hFP); carbacyclin (hIP); U-46619 (hTP), depending on receptor). The peak fluorescence change in each drug-containing well was then expressed relative to the controls.
(§4) Compounds were tested in a high-throughput (HTS) or concentration-response (CoRe) format. In the HTS format, forty-four compounds per plate were examined in duplicates at a concentration of 10^−5 M. To generate concentration-response curves, four compounds per plate were tested in duplicates in a concentration range between 10^−5 and 10^−11 M. The duplicate values were averaged. In either, HTS or CoRe format each compound was tested on at least 3 separate plates using cells from different passages to give an n≧3.

hEP2/Gqs5 = target: T2, hEP2/Gqs5 (Homo sapiens, UniProt P43116); assay: FLIPR calcium signal, HEK-293(EBNA) cells; assay type: cell-based; conditions: Table 1, second part; read-out: hEP2 flipr EC50
T2 construct: expressed in transfected cells; host or cells: HEK-293(EBNA) cells
T2 sequence (P43116 whole entry): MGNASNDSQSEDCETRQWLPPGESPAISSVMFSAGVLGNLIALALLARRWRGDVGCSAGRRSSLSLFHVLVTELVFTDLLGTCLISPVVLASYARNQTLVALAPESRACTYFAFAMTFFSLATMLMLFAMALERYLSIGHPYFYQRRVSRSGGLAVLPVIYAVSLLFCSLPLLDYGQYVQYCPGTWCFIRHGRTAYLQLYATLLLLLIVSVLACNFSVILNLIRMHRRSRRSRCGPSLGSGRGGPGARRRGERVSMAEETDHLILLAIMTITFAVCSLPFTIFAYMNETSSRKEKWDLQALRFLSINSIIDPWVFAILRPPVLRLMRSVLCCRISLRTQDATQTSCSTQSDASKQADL
Method: as §1, §2, §3, §4

hEP4/Gqs5 = target: T3, hEP4/Gqs5 (Homo sapiens, UniProt P35408); assay: FLIPR calcium signal, HEK-293(EBNA) cells; assay type: cell-based; conditions: Table 1, second part; read-out: hEP4 flipr EC50
T3 construct: expressed in transfected cells; host or cells: HEK-293(EBNA) cells
T3 sequence (P35408 whole entry): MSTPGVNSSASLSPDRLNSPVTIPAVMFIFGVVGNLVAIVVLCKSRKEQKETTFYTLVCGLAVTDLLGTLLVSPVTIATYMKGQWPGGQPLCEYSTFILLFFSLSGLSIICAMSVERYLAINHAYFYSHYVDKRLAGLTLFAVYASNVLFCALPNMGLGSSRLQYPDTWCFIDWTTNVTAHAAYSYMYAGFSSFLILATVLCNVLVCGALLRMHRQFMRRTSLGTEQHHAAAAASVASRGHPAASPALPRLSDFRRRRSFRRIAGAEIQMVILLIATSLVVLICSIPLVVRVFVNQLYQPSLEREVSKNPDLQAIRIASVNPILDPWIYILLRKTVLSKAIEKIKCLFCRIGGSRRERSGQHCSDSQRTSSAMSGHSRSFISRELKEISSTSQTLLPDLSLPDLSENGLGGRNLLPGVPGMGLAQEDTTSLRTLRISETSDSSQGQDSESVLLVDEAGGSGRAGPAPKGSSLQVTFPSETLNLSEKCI
Method: as §1, §2, §3, §4

hEP2 [1] = target: T4, hEP2 (Homo sapiens, UniProt P43116); assay: Competition binding, [3H]PGE2, HEK 293 cells stably expressing human EP2 receptors; set-up: expressed in transfected cells; host or cells: HEK 293 cells (membranes or whole cells); conditions: Table 1, second part; read-out: hEP2 Ki
T4 sequence (P43116 whole entry): as the sequence (P43116 whole entry) above
Method: Competition binding experiments were performed in a medium containing Hank's balanced salt solution, Hepes 20 mM, pH 7.3, membranes (˜60 μg protein) or 2×10^5 cells from HEK 293 cells stably expressing human EP2 receptors, [^3H]PGE2 (10 nM) and various concentrations of test compounds in a total volume of 300 μL. Reaction mixtures were incubated at 23° C. for 60 min, and were filtered over Whatman GF/B filters under vacuum. Filters were washed three times with 5 ml ice-cold buffer containing 50 mM Tris/HCl (pH 7.3). Non-specific binding was estimated in the presence of excess unlabeled PGE2 (10 μM). Binding data fitted to the binding model for a single class of binding sites, using nonlinear regression analysis. IC50 values thus obtained were converted to Ki using the equation of Ki=(IC50/(1+[L]/KD) where [L] represents PGE2 concentration (10 nM) and KD the dissociation constant for [^3H]PGE2 at human EP2 receptors (40 nM).
(§5) HEK-293 cells stably expressing the human or feline FP receptor, or EP1, EP2, or EP4 receptors were washed with TME buffer, scraped from the bottom of the flasks, and homogenized for 30 sec using a Brinkman PT 10/35 polytron. TME buffer was added to achieve a final 40 ml volume in the centrifuge tubes (the composition of TME is 100 mM TRIS base, 20 mM MgCl2, […]; 10N HCl is added to achieve a pH of 7.4).
(§6) The cell homogenate was centrifuged at 19000 r.p.m. for 20 min at 4° C. using a Beckman Ti-60 rotor. The resultant pellet was resuspended in TME buffer to give a final 1 mg/ml protein concentration, as determined by Biorad assay. Radioligand binding competition assays vs. [^3H—]17 phenyl PGF2. (5 nM) were performed in a 100 μl volume for 60 min. Binding reactions were started by adding plasma membrane fraction. The reaction was terminated by the addition of 4 ml ice-cold TRIS-HCl buffer and rapid filtration through glass fiber GF/B filters using a Brandel cell harvester. The filters were washed 3 times with ice-cold buffer and oven dried for one hour.
(§7) [^3H—] PGE2 (specific activity 180 Ci mmol) was used as the radioligand for EP receptors. [^3H] 17-phenyl PGF2α was employed for FP receptor binding studies. Binding studies employing EP1, EP2, EP4 and FP receptors were performed in duplicate in at least three separate experiments. A 200 μl assay volume was used. Incubations were for 60 min at 25° C. and were terminated by the addition of 4 ml of ice-cold 50 mM TRIS-HCl, followed by rapid filtration through Whatman GF/B filters and three additional 4 ml washes in a cell harvester (Brandel). Competition studies were performed using a final concentration of 5 nM [^3H]-PGE2, or 5 nM [^3H] 17-phenyl PGF2α and non-specific binding determined with 10^−5M of unlabeled PGE2, or 17-phenyl PGF2α, according to receptor subtype studied.

hEP4 = target: T5, hEP4 (Homo sapiens, UniProt P35408); assay: Radioligand binding, [3H]PGE2, HEK-293 cells stably expressing EP4 receptors; conditions: Table 1, second part; read-out: hEP4 Ki
T5 construct: expressed in transfected cells; host or cells: HEK-293 cells (plasma membrane fraction)
T5 sequence (P35408 whole entry): as the sequence (P35408 whole entry) above
Method: as §5, §6
as §7, with “Binding studies employing EP1, EP2, EP4 and FP receptors were performed in duplicate in at least three separate experiments.” left out

hEP2 [2] = target: T4, hEP2; assay: hEP2 cAMP functional assay; assay type: cell-based; conditions: Table 1, second part

T1 sequence (P43119 whole entry): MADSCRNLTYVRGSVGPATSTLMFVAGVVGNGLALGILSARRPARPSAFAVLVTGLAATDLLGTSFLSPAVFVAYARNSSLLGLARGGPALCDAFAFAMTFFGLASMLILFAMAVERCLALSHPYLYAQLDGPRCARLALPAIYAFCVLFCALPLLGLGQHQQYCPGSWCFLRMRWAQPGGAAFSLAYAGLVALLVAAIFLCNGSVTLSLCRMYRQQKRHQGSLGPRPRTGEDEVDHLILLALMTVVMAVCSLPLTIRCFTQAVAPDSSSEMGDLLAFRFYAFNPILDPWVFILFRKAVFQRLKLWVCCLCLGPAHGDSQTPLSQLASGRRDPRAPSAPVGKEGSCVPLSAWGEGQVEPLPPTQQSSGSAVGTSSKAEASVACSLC

SMILES: O=Cc1cccc(OC[C@@H]2[C@@H](C/C=C\CCCC(=O)O)[C@H](Cl)C[C@H]2O)c1 [Example 48, (Z)-7-[(1R,2S,3R,5R)-5-Chloro-2-(3-formyl-phenoxymethyl)-3-hydroxy-cyclopentyl]-hept-5-enoic acid]
- EC50 (hIP): 2690 nM
- EC50 (hEP2/Gqs5): 192 nM
- EC50 (hEP4/Gqs5): > 10000 nM
- Ki (hEP2 [1]): 291 nM
- Ki (hEP4): 14700 nM
- EC50 (hEP2 [2]): 41 nM
